Assay [1] addresses T1, human ALK2 R206H (Homo sapiens, UniProt Q04771, R206H).
T1 construct: expressed in transfected cells; host or cells: HEK293 (ATCC CRL1573), lentivirus transduction, blasticidin selection
T1 sequence (Q04771 21-509 R206H): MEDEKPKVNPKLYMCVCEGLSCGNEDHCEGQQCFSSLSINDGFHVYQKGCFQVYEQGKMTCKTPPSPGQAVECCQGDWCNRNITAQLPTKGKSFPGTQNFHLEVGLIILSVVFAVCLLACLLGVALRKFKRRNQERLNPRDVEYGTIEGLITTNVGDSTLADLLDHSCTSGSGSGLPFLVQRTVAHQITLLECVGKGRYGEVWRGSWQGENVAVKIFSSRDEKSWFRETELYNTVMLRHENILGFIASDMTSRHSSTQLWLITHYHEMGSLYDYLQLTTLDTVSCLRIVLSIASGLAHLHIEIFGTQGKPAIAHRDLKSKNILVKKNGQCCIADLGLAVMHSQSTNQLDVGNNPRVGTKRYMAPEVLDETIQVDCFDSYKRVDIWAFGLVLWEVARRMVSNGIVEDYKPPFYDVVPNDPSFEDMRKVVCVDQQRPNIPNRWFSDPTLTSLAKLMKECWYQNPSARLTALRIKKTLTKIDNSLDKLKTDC
As to the kind of experiment: Cell-based ALK2-R206H cell activity assay (Smad1-Ser463/Ser465 phosphorylation by AlphaLISA in HEK293-ALK2-R206H cells). The following applies: read-out: Cell Line (Cell Assay IC50). In a few lines: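 Stable HEK293 cells expressing C-terminally FLAG-tagged human ALK2 R206H (lentiviral, blasticidin-selected) were treated with compounds in 10-point, 3-fold dilutions from 10 μM or 1 μM top, in duplicate. Smad1 Ser463/Ser465 phosphorylation was read by AlphaLISA.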

Assay [2] concerns the target T2, ALK2 R206H (GST-tagged mutant ALK2) (Homo sapiens, UniProt Q04771, R206H).
T2 construct: purchased Carna Bioscience or ThermoFisher 09-148 or PV6232
T2 sequence (Q04771 21-509 R206H): T1 sequence (Q04771 21-509 R206H)
As to the kind of experiment: ALK binding assay (LANTHASCREEN TR-FRET competitive binding, displacement of Kinase Tracer 178). The following applies: ALK2 R206H, LANTHASCREEN TR-FRET competitive binding; read-out: Binding Assay (IC50).

This passage reports IC50 results from patent US10233186B2, “Inhibitors of activin receptor-like kinase” (BLUEPRINT MEDICINES CORPORATION, priority 2016, dated 2019).

Regarding `CCNC(=O)N1CCN(c2ccnn3cc(-c4ccc(C5CN(C(C)C)CCN5)cc4)cc23)CC1` (centres unmarked) [Compound 537], the IC50 was below 0.1 µM in assay [1] and below 0.01 µM in assay [2].

For `CCNC(=O)N1CCN(c2ccnn3cc(-c4ccc([C@@H]5CCCN(C(C)C)C5)cn4)cc23)CC1` [Compound 538], the IC50 in assay [1] is below 0.1 µM; in assay [2] it was below 0.01 µM.

Take `CCNC(=O)N1CCN(c2ccnn3cc(-c4ccc([C@H]5CCCN(C(C)C)C5)cn4)cc23)CC1` [Compound 539]: the IC50 in assay [1] is below 0.1 µM; in assay [2] it was below 0.01 µM.

For `CC(C)NC(=O)N1CCN(c2ccnn3cc(-c4ccc(C5(O)CN(C(C)C)C5)cc4)cc23)CC1` [Compound 540], the IC50 in assay [1] is below 0.1 µM; in assay [2], below 0.01 µM.

In the case of `COC1(c2ccc(-c3cc4c(N5CCN(C(=O)NC(C)C)CC5)ccnn4c3)cc2)CCNCC1` [Compound 541], the IC50 in assay [1] is below 0.1 µM; in assay [2], below 0.01 µM.

Regarding `CO[C@]1(c2ccc(-c3cc4c(N5CCN(C(=O)NC(C)C)CC5)ccnn4c3)cc2)CCCNC1` [Compound 542], the IC50 in assay [1] is below 0.1 µM; in assay [2], below 0.01 µM.

Turning to `CO[C@@]1(c2ccc(-c3cc4c(N5CCN(C(=O)NC(C)C)CC5)ccnn4c3)cc2)CCCNC1` [Compound 543], the IC50 in assay [1] is below 0.1 µM; in assay [2], below 0.01 µM.

For `CCOC(=O)N1CCN(c2ccnn3cc(-c4ccc([C@@H]5CCCN(C(C)C)C5)cn4)cc23)CC1` [Compound 544], the values for the IC50 in assay [1] and in assay [2] were below 0.1 µM and below 0.01 µM, respectively.

Turning to `CCOC(=O)N1CCN(c2ccnn3cc(-c4ccc([C@H]5CCCN(C(C)C)C5)cn4)cc23)CC1` [Compound 545], the values for the IC50 in assay [1] and in assay [2] were below 0.1 µM and below 0.01 µM, respectively.

Turning to `CCNC(=O)N1CCN(c2ccnn3cc(-c4ccc(N5CCN(C(C)C)CC5)cn4)cc23)CC1` [Compound 546], the IC50 is below 0.1 µM in assay [1] and below 0.01 µM in assay [2].

In the case of `CCNC(=O)N1CCN(c2ccnn3cc(-c4ccc(C5CCN(C(C)C)CC5)nn4)cc23)CC1` [Compound 548], the IC50 is above 0.5 µM in assay [1] and below 0.01 µM in assay [2].

On to `CCOC(=O)N1CCN(c2ccnn3cc(-c4ccc([C@@]5(O)CCN(C(C)C)C5)cc4)cc23)CC1` [Compound 550], for which the IC50 in assay [1] was below 0.1 µM; in assay [2] it was below 0.01 µM.

As to `CCOC(=O)N1CCN(c2ccnn3cc(-c4ccc([C@]5(O)CCN(C(C)C)C5)cc4)cc23)CC1` [Compound 551], the IC50 in assay [1] was below 0.1 µM; in assay [2], below 0.01 µM.

As to `CCNC(=O)N1CCN(c2ccnn3cc(-c4cnc(N5CCN(C(C)C)CC5)cn4)cc23)CC1` [Compound 554], the values for the IC50 in assay [1] and in assay [2] were 0.1 to 0.5 µM and below 0.01 µM, respectively.

With `CC(C)NC(=O)N1CCN(c2ccnn3cc(-c4cnn([C@@H]5CCCN(C(C)C)C5)c4)cc23)CC1` [Compound 556], the figures for the IC50 in assay [1] and in assay [2] were below 0.1 µM and below 0.01 µM, respectively.

With `CC(C)NC(=O)N1CCN(c2ccnn3cc(-c4cnn([C@H]5CCCN(C(C)C)C5)c4)cc23)CC1` [Compound 557], the IC50 in assay [1] was below 0.1 µM; in assay [2], below 0.01 µM.

`O=C(OC1COC1)N1CCN(c2ccnn3cc(-c4ccc([C@]5(F)CCCNC5)cc4)cc23)CC1` [Compound 558]: the IC50 in assay [1] is below 0.1 µM; in assay [2], below 0.01 µM.

For `O=C(OC1COC1)N1CCN(c2ccnn3cc(-c4ccc([C@@]5(F)CCCNC5)cc4)cc23)CC1` [Compound 559], the IC50 in assay [1] is below 0.1 µM; in assay [2] it was below 0.01 µM.

Consider `CCC(C)N1CCC[C@@H](c2ccc(-c3cc4c(N5CCN(C(=O)C6CC6)CC5)ccnn4c3)cc2)C1` (some centres unmarked) [Compound 560], for which the IC50 in assay [1] is below 0.1 µM; in assay [2], below 0.01 µM.

As to `CC[C@H](C)N1CCC[C@@H](c2ccc(-c3cc4c(N5CCN(C(=O)C6CC6)CC5)ccnn4c3)cc2)C1` [Compound 561], the IC50 was below 0.1 µM in assay [1] and below 0.01 µM in assay [2].

Take `CC[C@@H](C)N1CCC[C@@H](c2ccc(-c3cc4c(N5CCN(C(=O)C6CC6)CC5)ccnn4c3)cc2)C1` [Compound 562]: the IC50 in assay [1] is below 0.1 µM; in assay [2] it was below 0.01 µM.

Take `CC[C@@H](C)N1CCC(c2ccc(-c3cc4c(N5CCN(C(=O)C6CC6)CC5)ccnn4c3)cc2)CC1` [Compound 563]: the values for the IC50 in assay [1] and in assay [2] were below 0.1 µM and below 0.01 µM, respectively.

For the molecule `CC[C@H](C)N1CCC(c2ccc(-c3cc4c(N5CCN(C(=O)C6CC6)CC5)ccnn4c3)cc2)CC1` [Compound 564], the IC50 is below 0.1 µM in assay [1] and below 0.01 µM in assay [2].

For `CC(C)N1CCC(C)(c2ccc(-c3cc4c(N5CCN(C(=O)C6CC6)CC5)ccnn4c3)cc2)CC1` [Compound 565], the IC50 in assay [1] was below 0.1 µM; in assay [2], below 0.01 µM.

As to `CC(C)N1CCN(C)C(c2ccc(-c3cc4c(N5CCN(C(=O)C6CC6)CC5)ccnn4c3)cc2)C1` (centres unmarked) [Compound 566], the IC50 was below 0.1 µM in assay [1] and below 0.01 µM in assay [2].

Regarding `CC(C)N1CCN(C)[C@@H](c2ccc(-c3cc4c(N5CCN(C(=O)C6CC6)CC5)ccnn4c3)cc2)C1` [Compound 567], the IC50 in assay [1] is below 0.1 µM; in assay [2], below 0.01 µM.

Turning to `CC(C)N1CCN(C)[C@H](c2ccc(-c3cc4c(N5CCN(C(=O)C6CC6)CC5)ccnn4c3)cc2)C1` [Compound 568], the IC50 in assay [1] was below 0.1 µM; in assay [2] it was below 0.01 µM.

For the molecule `CC(C)N1CCN[C@](C)(c2ccc(-c3cc4c(N5CCN(C(=O)C6CC6)CC5)ccnn4c3)cc2)C1` [Compound 570], the IC50 in assay [1] was below 0.1 µM; in assay [2], below 0.01 µM.

Take `CO[C@]1(c2ccc(-c3cc4c(N5CCN(C(=O)C6CC6)CC5)ccnn4c3)cc2)CCN(C(C)C)C1` [Compound 572]: the figures for the IC50 in assay [1] and in assay [2] were below 0.1 µM and below 0.01 µM, respectively.

Consider `CO[C@@]1(c2ccc(-c3cc4c(N5CCN(C(=O)C6CC6)CC5)ccnn4c3)cc2)CCN(C(C)C)C1` [Compound 573], for which the IC50 in assay [1] is below 0.1 µM; in assay [2], below 0.01 µM.

Regarding `CC(C)N1CCN[C@](C)(c2ccc(-c3cc4c(N5CCN(C(=O)C6CC6)CC5)ccnn4c3)nc2)C1` [Compound 575], the IC50 in assay [1] was 0.1 to 0.5 µM; in assay [2] it was below 0.01 µM.

For the molecule `CC(C)N1CCN[C@@](C)(c2ccc(-c3cc4c(N5CCN(C(=O)C6CC6)CC5)ccnn4c3)nc2)C1` [Compound 576], the IC50 is below 0.1 µM in assay [1] and below 0.01 µM in assay [2].

Consider `CC(C)NC(=O)N1CCN(c2ccnn3cc(-c4ccc([C@@H]5CCCN(C(C)C)C5)cc4)cc23)CC1` [Compound 577], for which the values for the IC50 in assay [1] and in assay [2] were below 0.1 µM and below 0.01 µM, respectively.

With `CC(C)NC(=O)N1CCN(c2ccnn3cc(-c4ccc([C@H]5CCCN(C(C)C)C5)cc4)cc23)CC1` [Compound 578], the concentration for half-maximal inhibition (IC50) in assay [1] is below 0.1 µM; in assay [2] it was below 0.01 µM.

For `CCCNC(=O)N1CCN(c2ccnn3cc(-c4ccc([C@H]5CCCN(C(C)C)C5)cc4)cc23)CC1` [Compound 579], the IC50 is below 0.1 µM in assay [1] and below 0.01 µM in assay [2].

On to `CCCNC(=O)N1CCN(c2ccnn3cc(-c4ccc([C@@H]5CCCN(C(C)C)C5)cc4)cc23)CC1` [Compound 580], for which the IC50 in assay [1] was below 0.1 µM; in assay [2], below 0.01 µM.

Regarding `CC(C)NC(=O)N1CCN(c2ccnn3cc(-c4ccc([C@]5(C)CCCN5C(C)C)cc4)cc23)CC1` [Compound 581], the IC50 in assay [1] was below 0.1 µM; in assay [2] it was below 0.01 µM.

For `CC(C)NC(=O)N1CCN(c2ccnn3cc(-c4ccc([C@@]5(C)CCCN5C(C)C)cc4)cc23)CC1` [Compound 582], the IC50 is below 0.1 µM in assay [1] and below 0.01 µM in assay [2].

On to `CC(C)N1CCC(F)(c2ccc(-c3cc4c(N5CCN(C(=O)C6CC6)CC5)ccnn4c3)cc2)CC1` [Compound 583], for which the IC50 in assay [1] is below 0.1 µM; in assay [2], below 0.01 µM.

`CCOC(=O)N1CCN(c2ccnn3cc(-c4ccc(C5(C)CCN(C(C)C)CC5)cc4)cc23)CC1` [Compound 585]: the IC50 was below 0.1 µM in assay [1] and below 0.01 µM in assay [2].

`CCOC(=O)N1CCN(c2ccnn3cc(-c4ccc([C@@H]5CCCN(C(C)C)C5)cc4)cc23)C[C@H]1C` [Compound 586]: the figures for the IC50 in assay [1] and in assay [2] were 0.1 to 0.5 µM and below 0.01 µM, respectively.

Consider `CCNC(=O)N1CCN(c2ccnn3cc(-c4ccc(C5CN(C(C)C)CCN5C)cc4)cc23)CC1` (centres unmarked) [Compound 587], for which the IC50 in assay [1] was below 0.1 µM; in assay [2] it was below 0.01 µM.

In the case of `CC(C)NC(=O)N1CCN(c2ccnn3cc(-c4ccc([C@@H]5CCCN(C(C)C)C5)cn4)cc23)CC1` [Compound 588], the half-maximal inhibitory concentration (IC50) is below 0.1 µM in assay [1] and below 0.01 µM in assay [2].

As to `CC(C)NC(=O)N1CCN(c2ccnn3cc(-c4ccc([C@H]5CCCN(C(C)C)C5)cn4)cc23)CC1` [Compound 589], the values for the IC50 in assay [1] and in assay [2] were below 0.1 µM and below 0.01 µM, respectively.

Take `CCNC(=O)N1CCN(c2ccnn3cc(-c4ccc([C@]5(O)CCCN(C(C)C)C5)cc4)cc23)CC1` [Compound 591]: the IC50 was below 0.1 µM in assay [1] and below 0.01 µM in assay [2].

As for `CCNC(=O)N1CCN(c2ccnn3cc(-c4ccc([C@@]5(O)CCCN(C(C)C)C5)cc4)cc23)CC1` [Compound 592], the results for the IC50 in assay [1] and in assay [2] were below 0.1 µM and below 0.01 µM, respectively.

As usually defined, the IC50 is the midpoint of a concentration-inhibition curve.
